# From US20040005537A1, “Method of identifying toxic agents using differential gene expression” (priority 2000, published 2004)
# System: rat heart tissue
# Assay: GENECALLING differential gene expression analysis after dosing of serotonin modulating agents
# Format: in vivo, Sprague Dawley rats
# Method: Control animals received sterile water or canola oil. The animals were sacrificed 24 hours following the last dose. Liver tissue was dissected from the animals, and total RNA was recovered from the dissected tissue. cDNA was prepared and the resulting samples were processed through using GENECALLING™ differential expression analysis as described in U.S. Pat. No. 5,871,697 and in Shimkets et al., Nature Biotechnology 17:798-803 (1999). The contents of these patents and publications are incorporated herein by reference in their entirety.
# Thousands of gene fragments were initially found to be differentially expressed in rat heart tissue in response to serotonin modulating agents in. Genes fragments whose expression levels were modulated greater than ±1.5-fold were selected for further analysis.
# Column 6 of Table 1, entitled “Function”, lists the type of classification assigned for the protein, based on its function. The 210 single nucleic acid sequences identified herein, are referred to herein as CARDIOTOX 1-210.
compound,measurement,setting,value
CN1C[C@H](C(=O)N[C@]2(C)O[C@@]3(O)[C@@H]4CCCN4C(=O)[C@H](Cc4ccccc4)N3C2=O)C[C@@H]2c3cccc4[nH]cc(c34)C[C@H]21 [dihydroergotamine],"Effects on Transcription Level: Novel gene fragment, 467 bp, 94% SI to mouse gelsolin [J04953]",CARDIOTOX 70,−1.6 fold
same,"Effects on Transcription Level: Novel gene fragment, 535 bp, 90% SI to mouse slow/cardiac troponin C [M29793]",CARDIOTOX 71,−1.7 fold
same,"Effects on Transcription Level: Novel gene fragment, 445 bp, 85% SI to human skeletal muscle alpha 2 actinin [M86406]",CARDIOTOX 72,−2.0 fold
same,"Effects on Transcription Level: Novel gene fragment, 246 bp, 89% SI to mouse ponsin-1 [AF078667]",CARDIOTOX 73,−3.5 fold
same,"Effects on Transcription Level: Novel gene fragment, 126 bp, 77% SI to human DNA sequence from cosmid V311G7, between markers DXS366 and DXS87 on chromosome X [Z69304]",CARDIOTOX 74,+1.8 fold
same,"Effects on Transcription Level: Novel gene fragment, 370 bp",CARDIOTOX 75,−2.0 fold
same,"Effects on Transcription Level: Novel gene fragment, 337 bp, 78% SI to novel human protein AHNAK [M80899]",CARDIOTOX 76,−4.1 fold
same,"Effects on Transcription Level: Novel gene fragment, 100 bp, 93% SI to human KIAA0750 protein [ABO18293]",CARDIOTOX 77,−9.3 fold
same,"Effects on Transcription Level: Novel gene fragment, 44 bp",CARDIOTOX 78,−9.0 fold
same,"Effects on Transcription Level: Novel gene fragment, 698 bp, 93% SI to mouse plenty-of-prolines-101 [AF062655]",CARDIOTOX 79,−1.9 fold
same,"Effects on Transcription Level: Novel gene fragment, 660 bp, 84% SI to mouse membrane protein TMS-2 [AF181685]",CARDIOTOX 80,−3.0 fold
same,"Effects on Transcription Level: Novel gene fragment, 115 bp",CARDIOTOX 81,−7.5 fold
same,"Effects on Transcription Level: Novel gene fragment, 294 bp, 95% SI to mouse Ndr1 related protein Ndr2 [AB033921]",CARDIOTOX 82,−3.3 fold
same,"Effects on Transcription Level: Novel gene fragment, 198 bp",CARDIOTOX 83,+2.6 fold
same,"Effects on Transcription Level: Novel gene fragment, 730 bp, 86% SI to mouse E800 [Y10968]",CARDIOTOX 84,−1.7 fold
same,"Effects on Transcription Level: Novel gene fragment, 294 bp, 98% SI to cysteine conjugate beta-lyase [S61960]",CARDIOTOX 85,−1.7 fold
same,Effects on Transcription Level: Aconitase,"CARDIOTOX 86, GenBank A1243266",−3.2 fold
same,Effects on Transcription Level: Ribosomal protein L7,"CARDIOTOX 87, GenBank M17422",+2.7 fold
same,Effects on Transcription Level: Ribosomal protein L9,"CARDIOTOX 88, GenBank X51706",+5.0 fold
same,Effects on Transcription Level: Ribosomal protein L12,"CARDIOTOX 89, GenBank X53504",−2.0 fold
same,"Effects on Transcription Level: 18S, 5.8S, and 28S ribosomal RNA's","CARDIOTOX 90, GenBank V01270",+2.6 fold
same,Effects on Transcription Level: Pyruvate dehydrogenase kinase 2 (PDK2),"CARDIOTOX 91, GenBank U10357",−5.8 fold
same,Effects on Transcription Level: D-Binding Protein (DBP),"CARDIOTOX 92, GenBank J03179",−1.5 fold
same,Effects on Transcription Level: Lipoprotein lipase,"CARDIOTOX 93, GenBank L03294",−2.2 fold
same,Effects on Transcription Level: Non-neuronal enolase,"CARDIOTOX 94, GenBank X02610",+3.1 fold
same,Effects on Transcription Level: Glycogen phosphorylase (muscle isozyme),"CARDIOTOX 95, GenBank L10669",−2.7 fold
same,Effects on Transcription Level: Cytochrome c oxidase subunit IV,"CARDIOTOX 96, GenBank X14209",+4.1 fold
same,Effects on Transcription Level: Alpha-globin,"CARDIOTOX 97, GenBank M17083",+3.9 fold
same,Effects on Transcription Level: Beta-globin,"CARDIOTOX 98, GenBank X06701",+3.3 fold
same,Effects on Transcription Level: Myoglobin,"CARDIOTOX 99, GenBank AF197916",+3.9 fold
same,Effects on Transcription Level: Titin,"CARDIOTOX 100, GenBank L38717",−5.4 fold
same,Effects on Transcription Level: Skeletal muscle actin,"CARDIOTOX 101, GenBank V01218",−14.3 fold
same,Effects on Transcription Level: Myosin light chain 2 (MLC2),"CARDIOTOX 102, GenBank M11851",−1.5 fold
same,Effects on Transcription Level: Alpha cardiac myosin heavy chain,"CARDIOTOX 103, GenBank X15938",−2.5 fold
same,Effects on Transcription Level: Troponin I,"CARDIOTOX 104, GenBank U77354",+1.5 fold
same,Effects on Transcription Level: Cardiac calsequestrin,"CARDIOTOX 105, GenBank AF001334",−2.1 fold
same,Effects on Transcription Level: Sulfated glycoprotein 2,"CARDIOTOX 106, GenBank M16975",−1.6 fold
same,Effects on Transcription Level: Aquaporin 7,"CARDIOTOX 107, GenBank AB000507",+1.7 fold
same,Effects on Transcription Level: Carnitine/acylcarnitine carrier protein,"CARDIOTOX 108, GenBank X97831",−2.8 fold
same,Effects on Transcription Level: Glu-Pro Dipeptide Repeat,"CARDIOTOX 109, GenBank U40628",−5.1 fold
same,Effects on Transcription Level: Cystatin beta,"CARDIOTOX 110, GenBank X54737",+2.6 fold
same,"Effects on Transcription Level: Novel gene fragment, 593 bp, 90% SI to human calcineurin B-like protein [Z08983]",CARDIOTOX 111,+1.7 fold
same,"Effects on Transcription Level: Novel gene fragment, 179 bp, 88% SI to human titin [X90568]",CARDIOTOX 112,+6.0 fold
same,"Effects on Transcription Level: Novel gene fragment, 700 bp, 91% SI to mouse periplakin (PPL) [AF116523]",CARDIOTOX 113,+1.7 fold
same,Effects on Transcription Level: Long chain acyl-CoA dehydrogenase (LCAD),"CARDIOTOX 114, GenBank J05029",+1.5 fold
same,Effects on Transcription Level: Sulfated glycoprotein 1 (SGP-1),"CARDIOTOX 115, GenBank M19936",−1.7 fold
same,Effects on Transcription Level: Catalase,"CARDIOTOX 116, GenBank M11670",+1.6 fold
same,Effects on Transcription Level: Alpha-fodrin (A2A) (Nonerythroid spectrin alpha subunit),"CARDIOTOX 117, GenBank AF084186",−1.5 fold
same,Effects on Transcription Level: Cardiac specific sodium channel alpha-subunit,"CARDIOTOX 118, GenBank M27902",−1.6 fold
same,Effects on Transcription Level: Glu-Pro Dipeptide Repeat,"CARDIOTOX 119, GenBank U40628",+1.9 fold
same,"Effects on Transcription Level: Novel gene fragment, 200 bp, 64% SI to human KIAA0733 protein [AB018316]",CARDIOTOX 120,−1.2 fold
same,Effects on Transcription Level: RNA polymerase II transcription factor SIII (p18 subunit),"CARDIOTOX 121, GenBank L42855",+1.4 fold
same,Effects on Transcription Level: Protein-tyrosine phosphalase (LRP),"CARDIOTOX 122, GenBank L01702",+1.4 fold
same,Effects on Transcription Level: Skeletal muscle selenoprotein W (SelW),"CARDIOTOX 123, GenBank U25264",−1.4 fold
same,Effects on Transcription Level: Sarcoplasmic reticulum 2+-Ca-ATPase,"CARDIOTOX 124, GenBank X15635",−1.2 fold
same,Effects on Transcription Level: Ribosomal protein S7,"CARDIOTOX 125, GenBank X53377",+1.7 fold
same,Effects on Transcription Level: Ribophorin I,"CARDIOTOX 126, GenBank X05300",+1.5 fold
same,Effects on Transcription Level: Beta cardiac myosin heavy chain,"CARDIOTOX 127, GenBank X15939",−1.6 fold
same,Effects on Transcription Level: ADP-ribosylation factor 1,"CARDIOTOX 128, GenBank L12380",+1.3 fold
same,Effects on Transcription Level: Laminin receptor,"CARDIOTOX 129, GenBank U04942",+1.1 fold
same,"Effects on Transcription Level: Novel gene fragment, 206 bp, 89% SI to human seryl-tRNA synthetase [X91257]",CARDIOTOX 130,+2.0 fold
same,Effects on Transcription Level: Annexin VI,"CARDIOTOX 131, GenBank X86086",+3.5 fold
same,"Effects on Transcription Level: Novel gene fragment, 325 bp, 90% SI to mouse N-RAP [U76618]",CARDIOTOX 132,+1.4 fold
same,"Effects on Transcription Level: Novel gene fragment, 61 bp (CARDIOTOX 134)",LD10 dose for three days,−1.1 fold
same,"Effects on Transcription Level: Novel gene fragment, 337 bp (CARDIOTOX 133)",LD10 dose for three days,−1.2 fold
same,"Effects on Transcription Level: Novel gene fragment, 378 bp, 88% SI to human coatomer protein (COPA) [U24105] (CARDIOTOX 138)",LD10 dose for three days,+1.2 fold
same,Effects on Transcription Level: Long chain 3-ketoacyl-CoA thiolase (CARDIOTOX 136),"LD10 dose for three days, GenBank D16479",−1.2 fold
same,Effects on Transcription Level: TATA-binding protein interacting protein 120 (TIP120) (CARDIOTOX 135),"LD10 dose for three days, GenBank D87671",+1.1 fold
same,Effects on Transcription Level: Serine protease (CARDIOTOX 139),"LD10 dose for three days, GenBank D88250",+1.2 fold
same,Effects on Transcription Level: Thymosin beta-4 (CARDIOTOX 137),"LD10 dose for three days, GenBank M34043",+1.6 fold
